Reference: patent US20090311723A1, “FLUORESCENCE-BASED ASSAY FOR MONOACYLGLYCEROL LIPASE COMPATIBLE WITH INHIBITOR SCREENING” (WYETH, priority 2007, published 2009)
Blank lines part the entries; values can stand above or below the molecule they belong to.

What was measured:
[1] = Stability of 7-HCA in assay buffer over time; assay type: physicochemical; details: 25° C.
Procedure: The stability of 7-HCA in assay buffer was monitored over time and found to be stable for at least 5 hours at 25° C.

[2] = target: T1, recombinant human MGL protein (Homo sapiens, UniProt Q99685); assay: Fluorescence assay of MGL inhibition with 7-HCA as substrate; assay type: biochemical; details: for IC50: 3 ng MGL, 10 μM 7-HCA, pH 8, 25° C., 60 minutes
T1 construct: a mixture of forward and reverse primers spanning the entire coding region; made in house; host or cells: E. coli BL21
T1 sequence (Q99685 1-303): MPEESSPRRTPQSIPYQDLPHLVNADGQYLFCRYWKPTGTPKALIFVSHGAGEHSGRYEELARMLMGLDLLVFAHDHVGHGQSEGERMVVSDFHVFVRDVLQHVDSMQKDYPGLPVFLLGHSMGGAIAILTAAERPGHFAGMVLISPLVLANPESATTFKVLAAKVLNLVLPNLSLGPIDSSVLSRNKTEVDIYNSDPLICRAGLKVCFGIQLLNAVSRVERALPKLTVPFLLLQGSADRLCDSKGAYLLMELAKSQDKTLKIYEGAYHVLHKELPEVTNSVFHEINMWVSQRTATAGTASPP
Procedure: For measuring MGL inhibition by compounds, 3 ng protein per assay were incubated with indicated concentrations of the compound in the presence of 10 mM 7-HCA for 60 minutes. The reactions were stopped and processed as described above. Results are presented as the mean±S.E. of triplicate measurements from at least two independent experiments. The IC50 values were calculated by […]™ Prism 3.02 program using a sigmoidal dose-response equation.
Inhibition of MGL activity by URB602 was studied by treating 3 ng of MGL protein with increasing concentrations of URB602 with 7-HCA as substrate at pH 8, and 25° C., for 60 minutes in a total volume of 50 μl.
According to FIG. 7, the assay was carried out by incubating 3 ng of MGL protein with 10 μM 7-HCA and indicated concentrations of compounds in 50 mM HEPES, pH 8, 1 mM EDTA and 10% DMSO, at 25° C. for 60 minutes. The percent inhibition of MGL activity was plotted against compound concentration, and the IC50 was calculated by fitting the curve to a non-linear regression equation using […]™ Prism 3.02. Each data point represents mean±SD (n=3) from at least 2 individual experiments.

MGL [3] = target: T2, MGL (Rattus norvegicus, UniProt Q8R431); parameters: from tissue; host or cells: rat brain, periaqueductal grey, in vivo (reported from Hohmann 2005); details: micro-injection into periaqueductal grey, blocked by CB1 antagonist SR141716; cited from earlier work
T2 sequence (Q8R431 1-303): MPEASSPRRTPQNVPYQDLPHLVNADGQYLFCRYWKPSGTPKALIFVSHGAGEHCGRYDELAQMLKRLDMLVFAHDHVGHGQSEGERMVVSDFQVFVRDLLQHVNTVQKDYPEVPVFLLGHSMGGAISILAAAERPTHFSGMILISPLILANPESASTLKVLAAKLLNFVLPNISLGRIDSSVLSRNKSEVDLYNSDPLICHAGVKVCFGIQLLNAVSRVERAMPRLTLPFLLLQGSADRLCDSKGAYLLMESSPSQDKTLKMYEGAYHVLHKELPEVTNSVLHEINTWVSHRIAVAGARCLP

MGL [4] = target: T2, MGL; details: Makara 2005; later demonstrated to be false positive (impurity); read-out: IC50 of MGL previously reported; cited from earlier work
[5] = substrate: C=CCCCCC(=O)Oc1ccc2ccc(=O)oc2c1; assay: Rate of hydrolysis of fluorogenic substrates by MGL (Michaelis-Menten kinetics, 7-HC fluorescence); assay type: biochemical, human; details: other: 3 ng/well MGL, 10% DMSO, pH 8.0, room temperature, read after 10 minutes, ND = not detectable activity
Procedure: (§1) The assay was performed in a 384-well black plate (NUNC) in a total volume of 50 μl. A typical assay consisted of 3 ng of MGL protein, 10 mM 7-HCA substrate (prepared in DMSO) in assay buffer consisting of 50 mM HEPES, pH 8, 1 mM EDTA, and […] of inhibitor solution or DMSO (10% final concentration). The components were mixed and incubated on a shaker for 10-60 min and the plate was read in a fluorescence plate reader (SPECTRAMAX™-Gemini; Ex: 355 nm; Em: 460 nm). The reaction was carried out at 25° C., and the fluorescence was monitored in the kinetic mode. The fluorescence units were converted to amount of product based on the standard curve generated with 7-HC. The data were analyzed using GRAPHPAD™ Prism Version 3.02. The observed rate constants (apparent KM) were calculated using GRAPHPAD™ Prism 3.02 based on a Michaelis-Menten (one site binding hyperbola) equation Y=BmaxX/[Kd+X].
(§2) Table 3, shown below, depicts rates of hydrolysis for MGL with representative fluorogenic substrates. Rates were measured at reactions containing 3 ng/well MGL protein, a series of concentrations of above compounds in 10% DMSO, pH 8.0, and room temperature. The 7-HC fluorescence (λex=355 nm, λem=460 nm) was read after 10-minutes. The data were analyzed and the Vmax and Km calculated using the Michaelis-Menten equation. *ND means “not detectable activity.”
(§3) The kinetic constants, KM (apparent) and Vmax were calculated by determining the MGL activity with increasing substrate concentrations. 3 ng MGL protein were incubated with increasing 7-HCA concentrations, at pH 8, 25° C., for 10 minutes in a 384-well black plate, in a total volume of 50 μl. Specific activity of MGL was plotted against the substrate concentration and the data was fit to a non-linear regression equation (FIG. 6). […] The Lineweaver-Burk plot is shown as an insert within FIG. 6.
(§4) According to FIG. 6, a 50 μl MGL reaction, containing 3 ng/well MGL protein, the indicated concentrations of 7-HCA and 10% DMSO, was performed at room temperature. The 7-HC fluorescence (λex=355 nm, λem=460 nm) was read after 10-minutes. The data were analyzed and the Vmax and KM calculated using the Michaelis-Menten equation. A Lineweaver-Burk plot of 7-HCA hydrolysis by substrate is also shown.

[6] = substrate: CCCCC/C=C\C/C=C\C/C=C\C/C=C\CCCC(=O)Oc1ccc2ccc(=O)oc2c1; assay: as above; assay type: biochemical, human; details: other: 3 ng/well MGL, 10% DMSO, pH 8.0, room temperature, read after 10 minutes, ND = not detectable activity
Procedure: as §1, §2, §3, §4

Molecule: CCCCC/C=C\C/C=C\C/C=C\C/C=C\CCCC(=O)Oc1ccc2ccc(=O)oc2c1 [7-HCA, 7-Hydroxycoumarinyl-arachidonate]
- stability in assay buffer [1]: at least 5 hours

Molecule: CCCCC/C=C\C/C=C\C/C=C\C/C=C\CCCCN1C(=O)C=CC1=O [N-Arachidonyl Maleimide (NAM), N-Arachidonyl Maleimide]
- IC50 [2]: 155 nM

B1: recombinant human MGL protein (Homo sapiens) (protein)
chain: T1 sequence (Q99685 1-303)
notes: a mixture of forward and reverse primers spanning the entire coding region; made in house; host or cells: E. coli BL21
- Km [5]: 9.3 µM
- Vmax [5]: 1.3 µmol/min/mg
- Km [6]: 9.8 µM
- Vmax [6]: 1.7 µmol/min/mg

Now from value to molecule, other results behind:

- IC50 [2]: 3600 nM
- IC50 ([2]; listed as URB-602): 3100 nM
Molecule: O=C(Nc1cccc(-c2ccccc2)c1)OC1CCCCC1 [URB602]
- effect on stress-induced antinociception (MGL [3]): enhanced stress-induced antinociception

- inhibition of MGL activity (negative control) ([2]; concentrations up to 100 μM): failing to inhibit MGL activity
Molecule: Cc1ccc(Nc2nc3ccc(C)cc3c(=O)o2)cc1 [URB754]
- IC50 (MGL [4]): 50 nM
